Species: Rattus norvegicus
Assay: Open TG-GATES - Regimen: Daily Repeat
Format: toxicity, organism-based, Sprague-Dawley
Design: regimen Daily Repeat, gender Male, age 6 weeks
Conditions: in vivo, po, 10 mg/kg, route gavage, dose level Low; for APTT / Bas / Eos / Fbg / Hb / Ht / Lym / MCH / MCHC / MCV / Mono / Neu / PT / Plat / RBC / Ret / WBC: tissue Blood; for KIDNEY_L / KIDNEY_R / KIDNEY_TOTAL: tissue Kidney; for LIVER: tissue Liver; for A/G / ALP / ALT / AST / BUN / CRE / Ca / Cl / DBIL / GLC / IP / K / LDH / Na / PL / RALB / TBIL / TC / TG / TP / gamma-GTP: tissue Plasma

CC1=C(/C=C/C(C)=C/C=C/C(C)=C/CO)C(C)(C)CCC1 [RETINOL]
TERMINAL_BW (72 h, time 3 day): 230.9 g | APTT (72 h, time 3 day): 22.3 s | Bas (72 h, time 3 day): 0% | Eos (72 h, time 3 day): 0.8% | Fbg (72 h, time 3 day): 311.2 mg/dL | Hb (72 h, time 3 day): 13.4 g/dL | Ht (72 h, time 3 day): 38.9% | Lym (72 h, time 3 day): 80.8% | MCH (72 h, time 3 day): 21 pg | MCHC (72 h, time 3 day): 34.4% | MCV (72 h, time 3 day): 61.2 fL | Mono (72 h, time 3 day): 2.6% | Neu (72 h, time 3 day): 15.4% | PT (72 h, time 3 day): 16.8 s | Plat (72 h, time 3 day): 123.7 x10_4/uL | RBC (72 h, time 3 day): 636 x10_4/ul | Ret (72 h, time 3 day): 6.2% | WBC (72 h, time 3 day): 97.2 x10_2/uL | KIDNEY_L (72 h, time 3 day): 1 g | KIDNEY_R (72 h, time 3 day): 1 g | KIDNEY_TOTAL (72 h, time 3 day): 2 g | LIVER (72 h, time 3 day): 10.7 g | A/G (72 h, time 3 day): 1.3 | ALP (72 h, time 3 day): 2143.6 IU/L | ALT (72 h, time 3 day): 51.6 IU/L | AST (72 h, time 3 day): 82 IU/L | BUN (72 h, time 3 day): 17 mg/dL | CRE (72 h, time 3 day): 0.1 mg/dL | Ca (72 h, time 3 day): 11 mg/dL | Cl (72 h, time 3 day): 107.8 meq/L | DBIL (72 h, time 3 day): 0 mg/dL | GLC (72 h, time 3 day): 191.4 mg/dL | IP (72 h, time 3 day): 6.5 mg/dL | K (72 h, time 3 day): 4.3 meq/L | LDH (72 h, time 3 day): 262.6 IU/L | Na (72 h, time 3 day): 142.2 meq/L | PL (72 h, time 3 day): 153.6 mg/dL | RALB (72 h, time 3 day): 3.2 g/dL | TBIL (72 h, time 3 day): 0.016 mg/dL | TC (72 h, time 3 day): 78.2 mg/dL | TG (72 h, time 3 day): 112.6 mg/dL | TP (72 h, time 3 day): 5.6 g/dL | gamma-GTP (72 h, time 3 day): 1 IU/L | TERMINAL_BW ([…], time 7 day): 257.9 g | TERMINAL_BW ([…], time 14 day): 293.8 g | TERMINAL_BW ([…], time 28 day): 358.5 g | APTT ([…], time 7 day): 23.3 s | Bas ([…], time 7 day): 0% | Eos ([…], time 7 day): 0.8% | Fbg ([…], time 7 day): 298.4 mg/dL | Hb ([…], time 7 day): 13.6 g/dL | Ht ([…], time 7 day): 39.2% | Lym ([…], time 7 day): 79.4% | MCH ([…], time 7 day): 21.2 pg | MCHC ([…], time 7 day): 34.8% | MCV ([…], time 7 day): 60.9 fL | Mono ([…], time 7 day): 2.4% | Neu ([…], time 7 day): 16.8% | PT ([…], time 7 day): 15.9 s | Plat ([…], time 7 day): 111.8 x10_4/uL | RBC ([…], time 7 day): 644 x10_4/ul | Ret ([…], time 7 day): 5.1% | WBC ([…], time 7 day): 94.2 x10_2/uL | APTT ([…], time 14 day): 23.8 s | Bas ([…], time 14 day): 0% | Eos ([…], time 14 day): 0.8% | Fbg ([…], time 14 day): 295.4 mg/dL | Hb ([…], time 14 day): 14.4 g/dL | Ht ([…], time 14 day): 40.6% | Lym ([…], time 14 day): 83.6% | MCH ([…], time 14 day): 20.6 pg | MCHC ([…], time 14 day): 35.4% | MCV ([…], time 14 day): 58.2 fL | Mono ([…], time 14 day): 1.8% | Neu ([…], time 14 day): 13.2% | PT ([…], time 14 day): 16.2 s | Plat ([…], time 14 day): 107.1 x10_4/uL | RBC ([…], time 14 day): 698 x10_4/ul | Ret ([…], time 14 day): 3.9% | WBC ([…], time 14 day): 114.6 x10_2/uL | APTT ([…], time 28 day): 26.8 s | Bas ([…], time 28 day): 0% | Eos ([…], time 28 day): 1% | Fbg ([…], time 28 day): 330 mg/dL | Hb ([…], time 28 day): 14.9 g/dL | Ht ([…], time 28 day): 41.2% | Lym ([…], time 28 day): 82.8% | MCH ([…], time 28 day): 19.8 pg | MCHC ([…], time 28 day): 36.2% | MCV ([…], time 28 day): 54.6 fL | Mono ([…], time 28 day): 1.6% | Neu ([…], time 28 day): 14.6% | PT ([…], time 28 day): 15.8 s | Plat ([…], time 28 day): 102.3 x10_4/uL | RBC ([…], time 28 day): 756 x10_4/ul | Ret ([…], time 28 day): 2.4% | WBC ([…], time 28 day): 86 x10_2/uL | KIDNEY_L ([…], time 7 day): 1.1 g | KIDNEY_R ([…], time 7 day): 1.1 g | KIDNEY_TOTAL ([…], time 7 day): 2.2 g | KIDNEY_L ([…], time 14 day): 1.1 g | KIDNEY_R ([…], time 14 day): 1.2 g | KIDNEY_TOTAL ([…], time 14 day): 2.3 g | KIDNEY_L ([…], time 28 day): 1.3 g | KIDNEY_R ([…], time 28 day): 1.3 g | KIDNEY_TOTAL ([…], time 28 day): 2.6 g | LIVER ([…], time 7 day): 12.5 g | LIVER ([…], time 14 day): 12.9 g | LIVER ([…], time 28 day): 14.9 g | A/G ([…], time 7 day): 1.3 | ALP ([…], time 7 day): 1621.4 IU/L | ALT ([…], time 7 day): 41.6 IU/L | AST ([…], time 7 day): 68.2 IU/L | BUN ([…], time 7 day): 17.2 mg/dL | CRE ([…], time 7 day): 0.2 mg/dL | Ca ([…], time 7 day): 10.7 mg/dL | Cl ([…], time 7 day): 107.2 meq/L | DBIL ([…], time 7 day): 0 mg/dL | GLC ([…], time 7 day): 193.2 mg/dL | IP ([…], time 7 day): 6.2 mg/dL | K ([…], time 7 day): 4.1 meq/L | LDH ([…], time 7 day): 216 IU/L | Na ([…], time 7 day): 142.4 meq/L | PL ([…], time 7 day): 157.4 mg/dL | RALB ([…], time 7 day): 3.2 g/dL | TBIL ([…], time 7 day): 0.006 mg/dL | TC ([…], time 7 day): 76.4 mg/dL | TG ([…], time 7 day): 160.4 mg/dL | TP ([…], time 7 day): 5.7 g/dL | gamma-GTP ([…], time 7 day): 1.4 IU/L | A/G ([…], time 14 day): 1.2 | ALP ([…], time 14 day): 1426.6 IU/L | ALT ([…], time 14 day): 42.8 IU/L | AST ([…], time 14 day): 70.6 IU/L | BUN ([…], time 14 day): 17.6 mg/dL | CRE ([…], time 14 day): 0.2 mg/dL | Ca ([…], time 14 day): 10.6 mg/dL | Cl ([…], time 14 day): 108.4 meq/L | DBIL ([…], time 14 day): 0 mg/dL | GLC ([…], time 14 day): 195 mg/dL | IP ([…], time 14 day): 5.7 mg/dL | K ([…], time 14 day): 4 meq/L | LDH ([…], time 14 day): 181.2 IU/L | Na ([…], time 14 day): 143.2 meq/L | PL ([…], time 14 day): 150 mg/dL | RALB ([…], time 14 day): 3.1 g/dL | TBIL ([…], time 14 day): 0.004 mg/dL | TC ([…], time 14 day): 70.2 mg/dL | TG ([…], time 14 day): 156.8 mg/dL | TP ([…], time 14 day): 5.7 g/dL | gamma-GTP ([…], time 14 day): 0.8 IU/L | A/G ([…], time 28 day): 1.2 | ALP ([…], time 28 day): 1127 IU/L | ALT ([…], time 28 day): 46.2 IU/L | AST ([…], time 28 day): 69.4 IU/L | BUN ([…], time 28 day): 15.2 mg/dL | CRE ([…], time 28 day): 0.2 mg/dL | Ca ([…], time 28 day): 10.4 mg/dL | Cl ([…], time 28 day): 108.4 meq/L | DBIL ([…], time 28 day): 0 mg/dL | GLC ([…], time 28 day): 182.8 mg/dL | IP ([…], time 28 day): 5.8 mg/dL | K ([…], time 28 day): 4.1 meq/L | LDH ([…], time 28 day): 167.2 IU/L | Na ([…], time 28 day): 142 meq/L | PL ([…], time 28 day): 140.2 mg/dL | RALB ([…], time 28 day): 3.2 g/dL | TBIL ([…], time 28 day): 0.016 mg/dL | TC ([…], time 28 day): 67.8 mg/dL | TG ([…], time 28 day): 168.2 mg/dL | TP ([…], time 28 day): 6 g/dL | gamma-GTP ([…], time 28 day): 1.4 IU/L

Source: ChEMBL document CHEMBL3885861, “Open TG-GATES”
